Experimental data reported in US5308581A, “Substance of an optical fluorescence measuring arrangement for measuring the pH of a sample and optical sensor with such an indicator substance” (AVL Medical Instruments AG, priority 1990, dated 1994).
Where two headings read alike, the source gives them in different places.

Tests used:
Assay type in all cases: physicochemical
[1] = luminescence decay time of the acidic and basic forms of the indicator in the excited state; conditions: for luminescence decay time excited state .tau.(AH*): excited acid AH*; for luminescence decay time excited state .tau.(A-*): excited conjugate base A^-*; for luminescence decay time excited state .tau.(B*): excited base B*; for luminescence decay time excited state .tau.(BH+*): excited conjugate acid BH^+*
Experimental: .tau. lifetime of the excited state (luminescence
(§1) In an embodiment of the invention referring to item 1, the indicator is immobilized on a solid substrate, for example, and is brought into contact with the sample. […] After separation of the exciting light by means of a cut-off filter, fluorescence is detected over a broad band of the spectrum (for instance, by means of a photomultiplier or a pin photodiode) and decay time is measured electronically. As dissociation takes place in the ground state, both the absorption spectrum and the fluorescence spectrum are modified, which will have no negative effect on the measurement, however, due to the broad-band character of excitation and detection, or rather, due to the choice of the excitation wavelength in the overlap region of the absorption spectra and the broad detection band. Via a stored calibrating function the recorded decay times may be converted into pH values by a computer.
(§2) In an embodiment of the invention referring to item 2, a suitable indicator is immobilized on a solid substrate, and is dipped into the sample. Excitation takes place monochromatically with the use of a short-time light source (e.g., a coaxial flashlamp) and a color filter tuned to the absorption wavelength of the indicator (e.g., an interference filter). After separation of the exciting light by means of a cut-off filter, emission is detected over a broad band of the spectrum (for instance, by means of a photomultiplier or a pin photodiode). The pH value again is determined from the measured decay time via a stored calibrating function.

[2] = pH measuring range of the indicator via luminescence decay time
Experimental: as §1, §2

[3] = acid dissociation of the indicator in its electronic ground state (pKa); conditions: for pKa acidic form (AH) in ground state: indicator acid AH; for pKa acidic form (BH^+) in ground state: indicator base, conjugate acid BH^+
Description: Ka acid constant (dissociation equilibrium
pK value of an acid or conjugate acid
The pKa value of the electronically non-excited acid (AH or BH^+) is in the relevant measuring range.

[4] = acid dissociation of the indicator in its electronically excited state (pKa *); conditions: for pKa * value in the excited state exceeds the pKa value in the ground state by: increase
Description: S and .tau.B of the acidic forms (AH*, BH^+*) and basic forms (S^-*, B*) of the indicator differ from each other. In both fundamental instances the measured luminescence decay time .tau. is a function of the luminescence decay times .tau.B and .tau.S, their weighting depending on the pH prevailing in the sample.
The pKa * value of the electronically excited acid (AH* or BH^+*) is in the relevant measuring range.

[5] = excitation/emission maxima of the acidic and basic forms of the indicator; conditions: for emission maximum acidic form / excitation maximum acidic form: AH; for emission maximum conjugate basic form / excitation maximum conjugate basic form: A^-; for emission maximum basic form / excitation maximum basic form: B; for emission maximum conjugate acidic form / excitation maximum conjugate acidic form: BH^+
Experimental: as §1, §2

[6] = excited vs ground state, decrease

Row | Structure (SMILES) | luminescence decay time excited state .tau.(AH*) [1] [ns] | luminescence decay time excited state .tau.(A-*) [1] [ns] | measuring range [2] | pKa acidic form (AH) in ground state [3] | pKa * value in the excited state is lower than the pKa value in the ground state by [4] | emission maximum acidic form [5] [nm] | excitation maximum acidic form [5] [nm] | emission maximum conjugate basic form [5] [nm] | excitation maximum conjugate basic form [5] [nm] | luminescence decay time excited state .tau.(B*) [1] [ns] | luminescence decay time excited state .tau.(BH+*) [1] [ns] | pKa acidic form (BH^+) in ground state [3] | pKa * value in the excited state exceeds the pKa value in the ground state by ([4]; excited vs ground state) [units] | emission maximum basic form [5] [nm] | excitation maximum basic form [5] [nm] | emission maximum conjugate acidic form [5] [nm] | excitation maximum conjugate acidic form [5] [nm] | pKa * value in the excited state is lower than the pKa value in the ground state by [4, 6]
1 | O=C(O)Cc1c[nH]c2ccccc12 [3-indolylacetic acid] | 2.5 | 9.0 | 2-4 pH | ~3 | approx. 2 units | 340 | 278 | 340 | 285 |  |  |  |  |  |  |  |  | 
2 | O=c1c2ccccc2[nH]c2ccccc12 [9(10H)-acridone] |  |  | 0.5-2.5 pH |  |  |  |  |  |  | 26 | 15 | 0.02 | 1.7 | 440 | 383 | 456 | 399 | 
3 | c1ccc2nc3ccccc3cc2c1 [Acridine] |  |  | 4.0-7.0 pH |  |  |  |  |  |  | 14 | 33 | 5.45 | 5.25 | 430 | 356 | 475 | 356 | 
4 | Oc1ccc2ccccc2c1 [Example 2-naphthol, 2-naphthol] | 9.0 | 4.8 | 1.2-4.3 pH | ~9.8 |  | 356 | 328 | 410 | 348 |  |  |  |  |  |  |  |  | 7 units
5 | O=Cc1ccccc1O [Salicylaldehyde] | < 1 | ~3 | 7-10 pH | ~8.5 |  | 525 | 327 | 400 | 380 |  |  |  |  |  |  |  |  | approx. 6.5 units
